In patent publication US7381737B2, “Crystalline forms and process for preparing spiro-hydantoin compounds” (Bristol-Myers Squibb Company, priority 2004, dated 2008) one finds melting point data, which are given here for three molecules.

In turn, `COC(=O)c1csc(CN2C[C@@H](c3ccc(C#N)cc3)[C@]3(C2)C(=O)N(c2cc(Cl)cc(Cl)c2)C(=O)N3C)c1.Cl` (stereo in doubt) yielded a melting point of 204 to 207 °C.

`CN1C(=O)N(c2cc(Cl)cc(Cl)c2)C(=O)[C@]12CN(CN1C[C@@H](c3ccc(C#N)cc3)[C@]3(C1)C(=O)N(c1cc(Cl)cc(Cl)c1)C(=O)N3C)C[C@H]2c1ccc(C#N)cc1` (racemic) (hydrate or solvate) [Example 6b, Racemic Aminal Dimer of 4-[3-(3,5-Dichlorophenyl)-1-methyl-2,4-dioxo-1,3,7-triazaspiro[4.4]non-9-yl]-benzonitrile] had a melting point of 31 to 47 °C. The same measure for `CN1C(=O)N(c2cc(Cl)cc(Cl)c2)C(=O)[C@]12CN(CN1C[C@H](c3ccc(C#N)cc3)[C@@]3(C1)C(=O)N(c1cc(Cl)cc(Cl)c1)C(=O)N3C)C[C@H]2c1ccc(C#N)cc1` (hydrate or solvate) [Example 6a, Meso Aminal Dimer of 4-[3-(3,5-Dichlorophenyl)-1-methyl-2,4-dioxo-1,3,7-triazaspiro[4.4]non-9-yl]-benzonitrile]: 79 to 109 °C.

The term melting point denotes the temperature of the solid-liquid transition.
